The record followed here is PubChem BioAssay AID588733 (Vanderbilt Specialized Chemistry Center, 2011).

The assay concerns the target Metabotropic glutamate receptor 2 (Rattus norvegicus) (UniProt P31421). In words: rat mGlu2 allosteric modulation, glutamate curve shift, thallium flux, GIRK cells (AID 588733). As to conditions: glutamate CRC fold shift, at 10 µM, hits give high values.

Active and inactive are the calls of the source. How the calls were made is not given here.

Sequence of Metabotropic glutamate receptor 2 (Rattus norvegicus) (P31421 whole entry, looked up): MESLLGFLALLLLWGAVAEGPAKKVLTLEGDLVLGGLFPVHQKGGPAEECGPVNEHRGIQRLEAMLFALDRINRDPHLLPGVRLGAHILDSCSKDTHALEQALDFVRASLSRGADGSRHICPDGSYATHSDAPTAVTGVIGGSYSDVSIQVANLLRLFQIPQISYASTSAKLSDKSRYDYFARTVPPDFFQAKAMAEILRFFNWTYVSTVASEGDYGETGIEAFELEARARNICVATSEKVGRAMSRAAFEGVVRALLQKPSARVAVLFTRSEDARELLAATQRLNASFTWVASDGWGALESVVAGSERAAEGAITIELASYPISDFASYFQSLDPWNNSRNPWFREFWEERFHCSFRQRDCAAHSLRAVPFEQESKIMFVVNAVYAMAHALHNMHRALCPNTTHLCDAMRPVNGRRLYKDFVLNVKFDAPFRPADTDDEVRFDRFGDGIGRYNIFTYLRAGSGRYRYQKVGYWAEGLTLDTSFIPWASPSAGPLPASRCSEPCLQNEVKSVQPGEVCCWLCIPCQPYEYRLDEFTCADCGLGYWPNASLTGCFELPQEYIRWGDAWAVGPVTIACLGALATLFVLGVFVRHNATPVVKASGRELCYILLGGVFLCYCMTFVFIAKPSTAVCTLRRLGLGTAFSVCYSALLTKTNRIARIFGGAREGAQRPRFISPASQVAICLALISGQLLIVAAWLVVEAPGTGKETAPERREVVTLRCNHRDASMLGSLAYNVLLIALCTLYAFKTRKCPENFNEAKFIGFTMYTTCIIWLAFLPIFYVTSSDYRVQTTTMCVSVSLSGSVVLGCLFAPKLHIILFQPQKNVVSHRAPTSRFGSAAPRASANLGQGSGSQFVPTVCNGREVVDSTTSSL

Consider `C[C@@H](NC(=O)c1ccc(C#Cc2cccc(F)c2)cn1)C(C)(C)O`, for which the fold shift was 1.02 (inactive).

Consider `CC1(NC(=O)c2ccc(C#Cc3cccc(F)c3)cn2)COC1`, for which the fold shift was 0.92 (inactive).
